Results taken from patent US5126366A, “Aminophenoxyalkyl derivatives of benzodioxan” (American Home Products Corporation, priority 1991, dated 1992).
Where two headings read alike, the source gives them in different places. Values belong to the molecule of their own block, whether it stands above or below them.

Legend:
5-HT1A receptor = conditions: cited from earlier work
dopamine D2 receptor = target: T1, dopamine D2 receptor (Rattus norvegicus, UniProt P61169); test: Dopamine D2 receptor affinity, 3H-spiroperidol binding in homogenized limbic brain tissue
T1 construct: homogenized limbic brain tissue is incubated with ^3 H-spiroperidol; from tissue; host or cells: homogenized limbic brain tissue
T1 sequence (P61169 whole entry): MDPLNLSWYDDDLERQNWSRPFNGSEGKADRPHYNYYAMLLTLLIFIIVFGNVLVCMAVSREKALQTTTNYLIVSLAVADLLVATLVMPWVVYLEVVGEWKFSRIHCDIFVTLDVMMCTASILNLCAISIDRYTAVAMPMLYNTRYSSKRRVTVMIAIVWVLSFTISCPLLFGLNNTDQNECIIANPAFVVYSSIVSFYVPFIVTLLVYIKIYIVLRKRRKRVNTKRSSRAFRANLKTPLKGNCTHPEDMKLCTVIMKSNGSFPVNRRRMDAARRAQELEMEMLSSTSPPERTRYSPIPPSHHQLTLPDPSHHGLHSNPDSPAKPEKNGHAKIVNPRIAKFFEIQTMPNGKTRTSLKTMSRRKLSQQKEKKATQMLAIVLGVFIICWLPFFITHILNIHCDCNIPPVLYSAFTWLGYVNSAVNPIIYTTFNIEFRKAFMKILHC

synthesis of dopamine = test: Inhibition of dopa accumulation in GBL/NSD-1015-treated rats (dopamine autoreceptor agonism; Walters and Roth); format: in vivo, rats (male, Sprague-Dawley); conditions: sc, rat
Source text: The effect of the compounds of the invention on the synthesis of dopamine was established by the method of Walters and Roth, Naunyn-Schmiedeberg's Arch. […] Following perchloric acid extraction of the tissue, the extracts were placed over alumina columns to collect and concentrate dopa and other catechols. This eluate was then subjected to HPLC analysis using electrochemical detection to quantify the levels of dopa present. Dopamine autoreceptor agonists, under the conditions used above, inhibit dopa accumulation.

mouse locomotor activity = test: Reduction of mouse locomotor activity (Martin and Bendensky); format: in vivo, mice (male, CF-1); conditions: horizontal activity counts 10 to 20 minutes after dosing; for ED50: ip, read-out: Hypolocomotion (ED50 mg/kg, ip)
[1] = target: T2, serotonin 5-HT1A receptor (Rattus norvegicus, UniProt P19327); test: Serotonin 5-HT1A receptor affinity, displacement of [3H]8-OHDPAT; format: binding; conditions: for inhibition at 0.1 µM: read-out: Receptor Affinities 5-HT1A (% @ ( ) μM)
T2 construct: following the procedure of Hall et al., J. Neurochem; 44, 1685 (1985); from tissue
T2 sequence (P19327 1-422): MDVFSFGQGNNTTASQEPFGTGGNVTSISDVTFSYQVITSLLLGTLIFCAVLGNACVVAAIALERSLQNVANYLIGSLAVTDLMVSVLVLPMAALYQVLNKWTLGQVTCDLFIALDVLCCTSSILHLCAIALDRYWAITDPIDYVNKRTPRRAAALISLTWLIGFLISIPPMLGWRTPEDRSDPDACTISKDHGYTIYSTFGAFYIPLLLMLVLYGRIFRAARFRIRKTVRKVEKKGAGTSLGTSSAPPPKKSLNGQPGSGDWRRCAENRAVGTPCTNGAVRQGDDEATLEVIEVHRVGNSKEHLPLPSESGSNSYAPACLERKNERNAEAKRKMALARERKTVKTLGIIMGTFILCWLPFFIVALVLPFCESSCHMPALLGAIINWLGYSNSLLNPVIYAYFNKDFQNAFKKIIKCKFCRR
Source text: Affinity for the serotonin 5-HT1A receptor was established by testing the claimed compound's ability to displace [^3 H]8-OHDPAT (dipropylaminotetralin) from the 5-HT1A serotonin receptor following the procedure of Hall et al., J. Neurochem. 44, 1685 (1985). […] The anxiolytic activity of buspirone is believed to be, at least partially, due to its 5-HT1A receptor affinity (Vander Maclen et al., Eur. J. Pharmacol. 1986, 129 (1-2) 133-[…]).

[2] = limbic (L) brain tissue, read-out: Dopa Accumulation (% inhib. @ 10 mg/kg, sc), limbic (L)
[3] = striatal (S) brain tissue, read-out: Dopa Accumulation (% inhib. @ 10 mg/kg, sc), striatal (S)

SMILES: O=C1CC2(CCCC2)CC(=O)N1CCCCNCC1COc2ccccc2O1 (single isomer, unassigned; (-)) [(-)-MDL 72832]
binding at the 5-HT1A receptor site relative to the dextrorotary isomer (5-HT1A receptor; (-)-isomer versus dextrorotary isomer, Fozard et al.): 32 times

IC50 (dopamine D2 receptor; read-out: Receptor Affinities D2 IC50): 525 nM
IC50 ([1]; read-out: Receptor Affinities 5-HT1A IC50): 4 nM
SMILES: Nc1cccc(OCCCNCC2COc3ccccc3O2)c1 (centres unmarked) [Example 1, N-[3-(3-Aminophenoxy)propyl]-2,3-dihydro-1,4-benzodioxin-2-methanamine]
inhibition at 10 mg/kg (synthesis of dopamine; [2]): 33%
inhibition at 10 mg/kg (synthesis of dopamine; [3]): 46%
ED50 (mouse locomotor activity): 0.38 mg/kg

SMILES: COc1cccc2c1OCC(CNCCCOc1cccc(N)c1)O2 (centres unmarked) [Example 2, N-[3-(3-Aminophenoxy)propyl]-2,3-dihydro-5-methoxy-1,4-benzodioxin-2-methanamine]
inhibition at 10 mg/kg (synthesis of dopamine; [2]): -22%

SMILES: Nc1cccc(OCCCNCC2COc3ccc(O)cc3O2)c1 (centres unmarked) [Example 3, N-[3-(3-Aminophenoxy)propyl]-2,3-dihydro-7-hydroxy-1,4-benzodioxin-2-methanamine]
inhibition at 10 mg/kg (synthesis of dopamine; [2]): 64%
inhibition at 10 mg/kg (synthesis of dopamine; [3]): 66%
ED50 (mouse locomotor activity; Mus musculus): 0.16 mg/kg
Hypolocomotion (ED50 mg/kg, ip) (mouse locomotor activity): 0.15 mg/kg

SMILES: Nc1cccc(OCCCNC[C@H]2COc3ccc(O)cc3O2)c1 [Example 4, (S)-N-[3-(3-Aminophenoxy)propyl]-2,3-dihydro-7-hydroxy-1,4-benzodioxin-2-methanamine]
inhibition at 10 mg/kg (synthesis of dopamine; [2]): 70%
inhibition at 10 mg/kg (synthesis of dopamine; [3]): 71%
ED50 (mouse locomotor activity; Mus musculus): 0.08 mg/kg

SMILES: Nc1cccc(OCCCNCC2COc3cc(O)ccc3O2)c1 (centres unmarked) [Example 5, N-[3-(3-Aminophenoxy)propyl]-2,3-dihydro-6-hydroxy-1,4-benzodioxin-2-methanamine]
inhibition at 10 mg/kg (synthesis of dopamine; [2]): 31%
inhibition at 10 mg/kg (synthesis of dopamine; [3]): 30%

SMILES: Nc1cccc(OCCCNCC2COc3c(O)cccc3O2)c1 (centres unmarked) [Example 6, N-[3-(3-Aminophenoxy)propyl]-2,3-dihydro-5-hydroxy-1,4-benzodioxin-2-methanamine]
inhibition at 10 mg/kg (synthesis of dopamine; [2]): 23%
inhibition at 10 mg/kg (synthesis of dopamine; [3]): 30%

SMILES: Nc1cccc(OCCCNC[C@@H]2COc3ccc(O)cc3O2)c1 [Example 7, (R)-N-[3-(3-Aminophenoxy)propyl]-2,3-dihydro-7-hydroxy-1,4-benzodioxin-2-methanamine]
inhibition at 10 mg/kg (synthesis of dopamine; [2]): 27%
inhibition at 10 mg/kg (synthesis of dopamine; [3]): 19%
ED50 (mouse locomotor activity; Mus musculus): 1.34 mg/kg

inhibition at 1 µM (dopamine D2 receptor; % at 1.0 μM, read-out: Receptor Affinities D2 (% @ ( ) μM)): 48%
inhibition at 0.1 µM [1]: 95%
SMILES: COc1ccc2c(c1)OC(CNCCCOc1cccc(N)c1)CO2 (centres unmarked) [Example 8, N-[3-(3-Aminophenoxy)propyl]-2,3-dihydro-7-methoxy-1,4-benzodioxin-2-methanamine]
inhibition at 10 mg/kg (synthesis of dopamine; [2]): 42.9%

inhibition at 0.1 µM [1]: 100%
SMILES: Nc1cccc(OCCCNC[C@H]2COc3ccccc3O2)c1 [Example 9, (S)-N-[3-(3-Aminophenoxy)propyl]-2,3-dihydro-1,4-benzodioxin-2-methanamine]
ED50 (mouse locomotor activity): 0.19 mg/kg

inhibition at 0.1 µM [1]: 54%
SMILES: Nc1cccc(OCCCNCC2COc3cc4c(cc3O2)OCO4)c1 (centres unmarked) [Example 10, N-[3-(3-Aminophenoxy)propyl]-2,3-dihydro-6,7-methylenedioxy-1,4-benzodioxin-2-methanamine]
inhibition at 10 mg/kg (synthesis of dopamine; [2]): 70.9%
ED50 (mouse locomotor activity): 1.8 mg/kg

SMILES: COc1cccc2c1OC(CNCCCOc1cccc(N)c1)CO2 (centres unmarked) [Example 11, N-[3-(3-Aminophenoxy)propyl]-2,3-dihydro-8-methoxy-1,4-benzodioxin-2-methanamine]
inhibition at 10 mg/kg (synthesis of dopamine; [2]): 13%

SMILES: Nc1cccc(OCCCNCC2COc3cccc(O)c3O2)c1 (centres unmarked) [Example 12, N-[3-(3-Aminophenoxy)propyl]-2,3-dihydro-8-hydroxy-1,4-benzodioxin-2-methanamine]
inhibition at 10 mg/kg (synthesis of dopamine; [2]): 17.4%

SMILES: Nc1cccc(OCCCNCC2COc3ccc(Cl)cc3O2)c1 (centres unmarked) [Example 13, N-[3-(3-Aminophenoxy)propyl]-2,3-dihydro-7-chloro-1,4-benzodioxin-2-methanamine]
inhibition at 10 mg/kg (synthesis of dopamine; [2]): 9.1%

SMILES: COc1cc2c(cc1OC)OC(CNCCCOc1cccc(N)c1)CO2 (centres unmarked) [Example 14, N-[3-(3-Aminophenoxy)propyl]-2,3-dihydro-6,7-dimethoxy-1,4-benzodioxin-2-methanamine]
inhibition at 10 mg/kg (synthesis of dopamine; [2]): 53.7%

SMILES: COc1ccc2c(c1OC)OCC(CNCCCOc1cccc(N)c1)O2 (centres unmarked) [Example 15, N-[3-(3-Aminophenoxy)propyl]-2,3-dihydro-5,6-dimethoxy-1,4-benzodioxin-2-methanamine]
inhibition at 10 mg/kg (synthesis of dopamine; [2]): 7.6%

inhibition at 0.1 µM [1]: 87%
SMILES: Nc1cccc(OCCCNCC2COc3ccc(F)cc3O2)c1 (centres unmarked) [Example 16, N-[3-(3-Aminophenoxy)propyl]-2,3-dihydro-7-fluoro-1,4-benzodioxin-2-methanamine]
inhibition at 10 mg/kg (synthesis of dopamine; [2]): 59.9%
ED50 (mouse locomotor activity): 1.4 mg/kg

SMILES: COc1ccc2c(c1)O[C@@H](CNCCCOc1cccc(N)c1)CO2 [Example 17, (S)-N-[3-(3-Aminophenoxy)propyl]-2,3-dihydro-7-methoxy-1,4-benzodioxin-2-methanamine]
inhibition at 10 mg/kg (synthesis of dopamine; [2]): 28%

SMILES: Cc1c(O)ccc2c1OC(CNCCCOc1cccc(N)c1)CO2 (centres unmarked) [Example 19, N-[3-(3-Aminophenoxy)propyl]-2,3-dihydro-7-hydroxy-8-methyl-1,4-benzodioxin-2-methanamine]
inhibition at 10 mg/kg (synthesis of dopamine; [2]): 21%

SMILES: O=C1CC2(CCCC2)CC(=O)N1CCCCNCC1COc2ccccc2O1 (centres unmarked) [MDL 72832, 8-[4-(1,4-benzodioxan-2-ylmethylamino)butyl]-8-azaspiro[4.5]decane-7,9-dione]
5-HT1A receptor ligand character (5-HT1A receptor; in words, Fozard et al.): selective and stereospecific

SMILES: O=C1CC2(CCCC2)CC(=O)N1CCCCN1CCN(c2ncccn2)CC1 [buspirone]
affinity for the 5-HT1A serotonin receptor subtype (5-HT1A receptor; in words, standard for anxiolytic activity): potent affinity
